What all share (assay type): in vivo
In assay [1] the test system is nutsedge, yellow (yellow nutsedge, Cyperus esculentus). In words: Test E pre-/postemergence: nutsedge, yellow. The conditions noted are these: Preemergence, scale 0 to 100. From the text:
(§1) Seeds of plant species selected from corn (Zea mays), soybean (Glycine max), velvetleaf (Abutilon theophrasti), lambsquarters (Chenopodium album), poinsettia, wild (wild poinsettia, Euphorbia heterophylla), pigweed, palmer (palmer pigweed, Amaranthus palmeri), waterhemp (common waterhemp, Amaranthus rudis), smartweed (ladysthumb smartweed, Polygonum persicaria), surinam grass (Brachiaria decumbens), crabgrass, large (large crabgrass, Digitaria sanguinalis), crabgrass, Brazil (Brazilian crabgrass, Digitaria horizontalis), panicum, fall (fall panicum, Panicum dichotomiflorum), foxtail, giant (giant foxtail, Setaria faberii), foxtail, green (green foxtail, Setaria viridis), goosegrass (Eleusine indica), johnsongrass (Sorghum halepense), ragweed (common ragweed, Ambrosia elation), barnyardgrass (Echinochloa crus-galli), sandbur (southern sandbur, Cenchrus echinatus), arrowleaf sida (Sida rhombifolia), ryegrass, Italian (Italian ryegrass, Lolium multiflorum), dayflower, (VA) (Virginia dayflower, Commelina virginica), field bindweed (Convolvulus arvensis), cocklebur (common cocklebur, Xanthium strumarium), morningglory (Ipomoea coccinea), nightshade (eastern black nightshade, Solanum ptycanthum), kochia (Kochia scoparia), nutsedge, yellow (yellow nutsedge, Cyperus esculentus) and beggarticks (hairy beggarticks, Bidens pilosa) were planted into a silt loam soil and treated preemergence with test chemicals formulated in a non-phytotoxic solvent mixture which included a surfactant. At the same time, plants selected from these crop and weed species were planted in pots containing a growing medium comprising spaghnum peat moss, vermiculite, wetting agent and starter nutrients and treated with postemergence applications of some of the test chemicals formulated in the same manner. Plants ranged in height from 2 to 18 cm for postemergence treatments (1- to 4-leaf stage).
(§2) Treated plants and controls were maintained in a greenhouse for 14 to 21 days, after which time all species were compared to controls and visually evaluated. Plant response ratings, summarized in Table E, are based on a scale of 0 to 100 where 0 is no effect and 100 is complete control. A dash (-) response means no test result.

The subject of assay [2] is pigweed, palmer (palmer pigweed, Amaranthus palmeri). Nature of the assay: Test E pre-/postemergence: pigweed, palmer. As to conditions: scale 0 to 100.
Description: as §1, §2

Assay [3] deals with cocklebur (common cocklebur, Xanthium strumarium). In words: Test E pre-/postemergence: cocklebur. The conditions noted are these: Preemergence, scale 0 to 100.
Description: as §1, §2

Assay [4] relates to nutsedge, yellow (yellow nutsedge, Cyperus esculentus). In words: Test F pre-/postemergence: nutsedge, yellow. As to conditions: Preemergence.
Description: (§3) Seeds of plant species selected from corn (Zea mays), soybean (Glycine max), velvetleaf (Abutilon theophrasti), lambsquarters (Chenopodium album), poinsettia, wild (wild poinsettia, Euphorbia heterophylla), pigweed, palmer (palmer pigweed, Amaranthus palmeri), waterhemp (common waterhemp, Amaranthus rudis), surinam grass (Brachiaria decumbens), crabgrass, Brazil (Brazilian crabgrass, Digitaria horizontalis), panicum, fall (fall panicum Panicum dichotomiflorum), crabgrass, large (large crabgrass, Digitaria sanguinalis), foxtail, giant (giant foxtail, Setaria faberii), foxtail, green (green foxtail Setaria viridis), goosegrass (Eleusine indica), ragweed (common ragweed, Ambrosia elatior), barnyardgrass (Echinochloa crus-galli), sandbur (southern sandbur, Cenchrus echinatus), arrowleaf sida (Sida rhombifolia), ryegrass, Italian (Italian ryegrass, Lolium multiflorum), dayflower, VA (Virginia (VA) dayflower, Commelina virginica), field bindweed (Convolvulus arvensis), cocklebur (common cocklebur, Xanthium strumarium), morningglory (Ipomoea coccinea), nightshade (eastern black nightshade, Solanum ptycanthum), kochia (Kochia scoparia), nutsedge, yellow (yellow nutsedge, Cyperus esculentus), johnsongrass (Sorghum halepense), smartweed (ladysthumb smartweed, Polygonum persicaria), and beggarticks (hairy beggarticks, Bidens pilosa), were planted into a silt loam soil and treated preemergence with test chemicals formulated in a non-phytotoxic solvent mixture which included a surfactant. At the same time, plants selected from these crop and weed species and also pigweed (Amaranthus retroflexus), waterhemp_RES1 (ALS/Triazine resistant common waterhemp, Amaranthus rudis) and waterhemp_RES2 (ALS/HPPD resistant common waterhemp, Amaranthus rudis) were planted in pots containing a planting medium comprising spaghnum peat moss, vermiculite, wetting agent and starter nutrients treated with postemergence applications of some of the test chemicals formulated in the same manner. Plants ranged in height from 2 to 18 cm for postemergence treatments (1- to 4-leaf stage).
as §2

The subject of assay [5] is arrowleaf sida (Sida rhombifolia). In words: Test F pre-/postemergence: arrowleaf sida.
Description: as §3, §2

The test system of assay [6] is ragweed (common ragweed, Ambrosia elatior). Nature of the assay: Test F pre-/postemergence: ragweed. The conditions noted are these: Preemergence.
Description: as §3, §2

Where [7] appears, read: 16 g ai/ha, scale 0 to 100 (0 no effect, 100 complete control).
Where [8] appears, read: 31 g ai/ha, scale 0 to 100 (0 no effect, 100 complete control).
Setting [9] is: Preemergence, 16 g ai/ha, scale 0 to 100 (0 no effect, 100 complete control).
Where [10] appears, read: Preemergence, 31 g ai/ha, scale 0 to 100 (0 no effect, 100 complete control).
Where [11] appears, read: Preemergence, 62 g ai/ha, scale 0 to 100.
Setting [12] is: Preemergence, 125 g ai/ha, scale 0 to 100.
[13] abbreviates: Postemergence, 8 g ai/ha, scale 0 to 100.
Where [14] appears, read: Postemergence, 16 g ai/ha, scale 0 to 100.
Setting [15] is: Postemergence, 31 g ai/ha, scale 0 to 100.
The mark [16] stands for this setting: Postemergence, 62 g ai/ha, scale 0 to 100.
The mark [17] stands for this setting: 4 g ai/ha, scale 0 to 100, 0 no effect, 100 complete control.
Where [18] appears, read: 8 g ai/ha, scale 0 to 100, 0 no effect, 100 complete control.

Take `Cc1nn(-c2ccc(F)cc2)nc1Cc1ccnc(C(F)(F)F)c1` [Compound 16, 4-[[2-(4-fluorophenyl)-5-methyl-2H-1,2,3-triazol-4-yl]methyl]-2-(trifluoromethyl)pyridine]: the “Plant response rating: Nutsedge, Yellow” value in assay [1] (8 g ai/ha) was found to be 0; in assay [1] (16 g ai/ha), 0; in assay [1] (31 g ai/ha), 0; in assay [1] (62 g ai/ha), 20; in assay [1] (125 g ai/ha), 20. Moreover, the “Plant response rating: Pigweed, Palmer” value in assay [2] (Preemergence, 8 g ai/ha) is on record as 95; in assay [2] (Preemergence, 16 g ai/ha), 98; in assay [2] (Preemergence, 31 g ai/ha) it was 98; in assay [2] (Preemergence, 62 g ai/ha), 98; in assay [2] (Preemergence, 125 g ai/ha), 100. The “Plant response rating: Cocklebur” value in assay [3] (16 g ai/ha), in assay [3] (31 g ai/ha), in assay [3] (62 g ai/ha) and in assay [3] (125 g ai/ha) was 0 throughout.
`Cc1nn(-c2ccc(C(F)(F)F)cc2)nc1Cc1ccnc(C(F)(F)F)c1` [Compound 47, 4-[[5-methyl-2-[4-(trifluoromethyl)phenyl]-2H-1,2,3-triazol-4-yl]methyl]-2-(trifluoromethyl)pyridine]: the “Plant response rating: Nutsedge, Yellow” value in assay [1] (16 g ai/ha) was found to be 0; in assay [1] (31 g ai/ha), 0; in assay [1] (62 g ai/ha), 10; in assay [1] (125 g ai/ha) it was 10; in assay [1] (250 g ai/ha), 35. Further, the “Plant response rating: Pigweed, Palmer” value in assay [2] (Postemergence, 250 g ai/ha) was found to be 100; in assay [2] (Postemergence, 16 g ai/ha), 70; in assay [2] (Postemergence, 31 g ai/ha) it was 90; in assay [2] (Postemergence, 62 g ai/ha), 95; in assay [2] (Postemergence, 125 g ai/ha), 100; in assay [2] (Preemergence, 16 g ai/ha), 100. Further, the “Plant response rating: Pigweed, Palmer” value is 100 in assay [2] (Preemergence, 31 g ai/ha); 100 in assay [2] (Preemergence, 62 g ai/ha); 100 in assay [2] (Preemergence, 125 g ai/ha); 100 in assay [2] (Preemergence, 250 g ai/ha). Further, the “Plant response rating: Cocklebur” value was determined as 0 in assay [3] (16 g ai/ha); 10 in assay [3] (31 g ai/ha); 20 in assay [3] (62 g ai/ha); 35 in assay [3] (125 g ai/ha); 50 in assay [3] (250 g ai/ha).
On to `Cc1nn(-c2ccc(F)cc2)nc1Oc1ccnc(C(F)(F)F)c1` [Compound 129, 4-[[2-(4-fluorophenyl)-5-methyl-2H-1,2,3-triazol-4-yl]oxy]-2-(trifluoromethyl)pyridine], for which the “Plant response rating: Nutsedge, Yellow” value in assay [1] (8 g ai/ha) stood at 0; in assay [1] (16 g ai/ha), 0; in assay [1] (31 g ai/ha), 0; in assay [1] (62 g ai/ha) it was 0; in assay [1] (125 g ai/ha), 20. For the same molecule, the “Plant response rating: Pigweed, Palmer” value in assay [2] (Preemergence, 8 g ai/ha) is reported as 30; in assay [2] (Preemergence, 16 g ai/ha), 80; in assay [2] (Preemergence, 31 g ai/ha) it was 100; in assay [2] (Preemergence, 62 g ai/ha), 100; in assay [2] (Preemergence, 125 g ai/ha), 100. Further, the “Plant response rating: Cocklebur” value in assay [3] (8 g ai/ha) was determined as 0; in assay [3] (16 g ai/ha), 0; in assay [3] (31 g ai/ha) it was 0; in assay [3] (62 g ai/ha) it was 35; in assay [3] (125 g ai/ha), 35.
Consider `Fc1ccc(-n2nc(Cc3ccnc(C(F)(F)F)c3)c(OCC(F)(F)F)n2)cc1` [Compound 142], for which the “Plant response rating, Nutsedge, Yellow” value in assay [4] (setting [7]) is given as 0; in assay [4] (setting [8]), 0; in assay [4] (125 g ai/ha, scale 0 to 100), 0. For the same molecule, the “Plant response rating, Arrowleaf Sida” value amounted to 0 in assay [5] (setting [9]), 30 in assay [5] (setting [10]), 30 in assay [5] (setting [11]) and 35 in assay [5] (setting [12]). In addition, the “Plant response rating, Ragweed” value is 0 in assay [6] (setting [7]); 0 in assay [6] (setting [8]); 40 in assay [6] (125 g ai/ha, scale 0 to 100).
`Cc1nn(-c2ccc(F)c(F)c2)nc1Oc1ccnc(C(F)(F)F)c1` [Compound 145]: the “Plant response rating, Arrowleaf Sida” value in assay [5] (setting [13]) is reported as 30; in assay [5] (setting [14]), 40; in assay [5] (setting [15]) it was 50; in assay [5] (setting [16]), 60; in assay [5] (Postemergence, 125 g ai/ha, scale 0 to 100), 70.
Take `CCCc1nn(-c2ccc(F)cc2)nc1Cc1ccnc(C(F)(F)F)c1` [Compound 153]: the “Plant response rating, Nutsedge, Yellow” value in assay [4] (setting [7]) worked out at 0; in assay [4] (setting [8]) it was 0; in assay [4] (125 g ai/ha, scale 0 to 100), 10; in assay [4] (250 g ai/ha, scale 0 to 100), 10. Moreover, the “Plant response rating, Arrowleaf Sida” value in assay [5] (setting [9]) is 5; in assay [5] (setting [10]), 5; in assay [5] (setting [11]), 25; in assay [5] (setting [12]), 25; in assay [5] (Preemergence, 250 g ai/ha, scale 0 to 100) it was 65. Also, the “Plant response rating, Ragweed” value worked out at 5 in assay [6] (setting [7]); 5 in assay [6] (setting [8]); 20 in assay [6] (125 g ai/ha, scale 0 to 100); 80 in assay [6] (250 g ai/ha, scale 0 to 100).
In the case of `Cc1nn(-c2ccc(C(F)(F)F)c(F)c2)nc1Cc1ccnc(C(F)(F)F)c1` [Compound 162], the “Plant response rating, Nutsedge, Yellow” value in assay [4] (setting [17]) is on record as 0; in assay [4] (setting [18]), 0; in assay [4] (setting [7]) it was 35; in assay [4] (setting [8]) it was 35. For the same molecule, the “Plant response rating, Arrowleaf Sida” value in assay [5] (Postemergence, 4 g ai/ha, scale 0 to 100) is 10; in assay [5] (setting [13]) it was 25; in assay [5] (setting [14]), 30; in assay [5] (setting [15]) it was 35; in assay [5] (setting [16]), 60; in assay [5] (Preemergence, 4 g ai/ha, scale 0 to 100, 0 no effect, 100 complete control), 0. Further, the “Plant response rating, Arrowleaf Sida” value is 0 in assay [5] (Preemergence, 8 g ai/ha, scale 0 to 100, 0 no effect, 100 complete control); 0 in assay [5] (setting [9]); 0 in assay [5] (setting [10]); 0 in assay [5] (setting [11]). For the same molecule, the “Plant response rating, Ragweed” value in assay [6] (setting [17]) was 0; in assay [6] (setting [18]) it was 0; in assay [6] (setting [7]), 0; in assay [6] (setting [8]), 70.
